# Measurements reported in patent publication US5098888A, “New heterocyclic tripeptide compounds” (Adir et Compagnie, priority 1989, dated 1992).
# Columns and labels:
# Format in all cases: in vivo
# [1] = tested on: synaptosomal high-affinity choline uptake (HACU); assay: Barbiturate-induced cholinergic deficit in rats
# Text: This sodium-dependent uptake normally constitutes the limiting factor in acetyl choline synthesis.
# mice [2] = assay: Oxotremorine-induced tremor in mice
# mice [3] = assay: Interaction with clonidine (cerebral survival time on sudden cardiac arrest caused by MgCl2); details: for antagonism of the effect of clonidine: simultaneously with clonidine
structure (smiles),measurement,setting,value
"NC(=O)[C@@H]1CCCN1C(=O)[C@H](Cc1c[nH]cn1)NC(=O)[C@@H]1CCC(=O)N1 [TRH, pyroglutamylhistidylprolinamide]",inhibition of narcosis,[1]; 10 mg/kg ip simultaneously with pentobarbital,does not inhibit the narcosis
same,counteraction/inhibition of the fall in HACU induced by the barbiturate,"[1]; 10 mg/kg ip simultaneously with pentobarbital 60 mg/kg ip, HACU measured after 20 minutes of narcosis",-35%
same,boosting of the tremor,mice [2]; 3 mg/kg ip,no longer apparent
same,boosting of the tremor,"mice [2]; 10 mg/kg ip 30 minutes before oxotremorine 0.5 mg/kg ip, measured at peak of action",+90%
same,boosting of the tremor,mice [2]; administered orally (Example 1: 10 mg/kg),no boosting effect
same,boosting effect in the presence of scopolamine,mice [2]; scopolamine 0.01 mg/kg,persists
same,antagonism of the effect of clonidine,mice [3]; 1 mg/kg ip,-20%
same,antagonism of the effect of clonidine,mice [3]; 3 mg/kg ip,-80%
same,effect on its own in the test,mice [3]; without clonidine,without having an effect on its own
"Cn1cnc(C[C@H](NC(=O)[C@@H]2CCC(=O)N2)C(=O)N2[C@H]3CC[C@H](C3)[C@H]2C(N)=O)c1 [Example 1, (S)PyroGlu-(S)(N^.tau. -Me)His-(1S,3S,4R)ABH-NH2]",induction of tremor by the compound itself,mice [2]; 10 mg/kg ip,without itself inducing tremor
Clc1cccc(Cl)c1N=C1NCCN1 [clonidine],increase in the cerebral survival time,mice [3]; sudden cardiac arrest caused by intravenous MgCl2,+60%
CCCC(C)C1(CC)C(=O)NC(=O)NC1=O (stereo not drawn) [pentobarbital],fall in synaptosomal high-affinity choline uptake (HACU),"[1]; 60 mg/kg ip, after 20 minutes of narcosis",-48%
